{"source": "patent US20160215348A1", "about": "“GENE EXPRESSION BIOMARKERS AND THEIR USE FOR DIAGNOSTIC AND PROGNOSTIC APPLICATION IN PATIENTS POTENTIALLY IN NEED OF HDAC INHIBITOR TREATMENT” (4SC AG, priority 2013, published 2016)", "key": {"[1]": {"system": "CCDC43", "test": "Gene expression in HT29 cancer cells (in vitro)", "type": "cell-based, human", "conditions": "standardized to 0 h", "protocol": "(§1) Hatched columns relate to blood, black columns relate to HepG2 cells, white boxes relate to HT 29 cells. Values are standardized to the value at 0 h.\n(§2) Samples were obtained and gene expressions were determined with the methods as described herein below. The results are shown in below table 3 and FIGS. 2 and 3\n(§3) The above values represent a mean value which was determined on the basis of 2 biological replicates, for each of which 3 technical replicates were prepared. […] The level of gene expression determined in peripheral blood samples can be correlated with a certain level of activity of HDAC in the diseased cells, e.g. by applying an appropriate conversion factor or conversion table, which may be determined for each specific disease, and/or patient group.\n(§4) To determine RNA expression levels of ZFP64 in different cancer cell lines and PBMC, the cell membranes were chemically disrupted with a buffer containing guanidine isothiocycanate, which lyses the cells and supports the binding of RNA to a silica membrane and RNA was extracted via a filter-based spin column.\n(§5) The High-Capacity cDNA Reverse Transcription Kit (Applied Biosystems) was used for reverse transcription of total RNA into single stranded cDNA with the aid of random hexamer primers according to the manufacturer's instructions. Briefly, for the reaction mix total RNA was mixed with random primers in excess, 4 mM dNTP Mix, 2.5 U/reaction, reverse transcriptase and nuclease free water. The reverse transcription took place in a thermal cycler under the following conditions: 25° C. for 10 min, 37° C. for 120 min, 85° C. for 5 min, followed by 4° C. for cooling down the reaction. The reverse transcription can be done in principle as well with other reverse transcriptases, primers and temperature protocols. Whenever possible, 250 ng total RNA were reverse transcribed if not available, lower amounts were used.\n(§6) Custom TaqMan® Arrays (Applied Biosystems) in Format 16 were designed for the gene expression analysis of biomarkers of the present invention and housekeeping genes as outlined in table 4. These arrays allow for qPCR analysis of 8 samples per card. Of course, all reactions can be done as well by conventional qPCR analysis with specific primers."}, "[2]": {"system": "GAPDH", "test": "Gene expression in HT29 cancer cells (in vitro)", "type": "cell-based, human", "conditions": "standardized to 0 h", "protocol": "as §1, §2, §3, §4, §5, §6"}, "[3]": {"system": "HIST2H4A/B", "test": "Gene expression in HT29 cancer cells (in vitro)", "type": "cell-based, human", "conditions": "standardized to 0 h", "protocol": "as §1, §2, §3, §4, §5, §6"}, "[4]": {"system": "KDELC2", "test": "Gene expression in HT29 cancer cells (in vitro)", "type": "cell-based, human", "conditions": "standardized to 0 h", "protocol": "as §1, §2, §3, §4, §5, §6"}, "[5]": {"system": "DPP3", "test": "Gene expression in HT29 cancer cells (in vitro)", "type": "cell-based, human", "conditions": "standardized to 0 h", "protocol": "as §1, §2, §3, §4, §5, §6"}, "[6]": {"system": "TBP", "test": "Gene expression in HT29 cancer cells (in vitro)", "type": "cell-based, human", "conditions": "standardized to 0 h", "protocol": "as §1, §2, §3, §4, §5, §6"}, "[7]": {"system": "KDELC2", "test": "qPCR relative expression (vs cycle 1, day 1, hour 0) in patients' whole blood", "type": "in vivo, human", "protocol": "(§7) 2.5 ml whole blood from patients was collected in PAXgene™ tubes (BD Biosciences) that contain chemicals to lyse the erythrocytes, stabilize RNA from degradation by RNases and minimize ex vivo changes in gene expression. The samples were incubated at 20° C. to 25° C. for 2 hours and then frozen at −20° C. until purification of total RNA.\n(§8) Total RNA was isolated from the whole blood samples stabilized in PAXgene™ buffer using a spin column based technique suitable for whole blood samples (like PAXgene™ Blood miRNA Kit or PAXgene™ Blood RNA Kit from Qiagen) according to the manufacturer's instructions. The purification began with a centrifugation step to pellet nucleic acids in the (PAXgene™ Blood RNA) tube. The resuspended pellet was incubated in buffers, optimized for maintenance of RNA stability together with proteinase K to bring about protein digestion. An additional centrifugation through the PAXgene™ Shredder spin column was carried out to homogenize the cell lysate and remove residual cell debris, and the supernatant of the flow-through fraction was transferred to a fresh microcentrifuge tube. Ethanol was added to adjust binding conditions, and the lysate was applied to a PAXgene™ RNA spin column. During a brief centrifugation, RNA was selectively bound to the PAXgene™ silica membrane as contaminants pass through. Remaining contaminants were removed in several efficient wash steps. Between the first and second wash steps, the membrane was treated with DNase I, as described herein below in 1.3 to remove trace amounts of bound DNA. After the wash steps, RNA was eluted in nuclease free water and heat-denatured.\nas §5, §6\n(§9) The reaction mix was transferred into the reaction chambers by centrifuging twice for 1 minute each at 330 g and 4° C. After sealing, the microfluidic cards were run on an AB7900HT instrument (Applied Biosystems). The software SDS 2.4 (Applied Biosystems) was employed for instrument control, data acquisition and raw data analysis. The plates were run in Relative Quantification (ΔΔCt) mode, and the following temperature profile was used:\n(§10) This analysis was carried out for each patient separately. The first sample (cycle 1, day 1, hour 0) was used as the reference sample. The ‘exprs’ value indicates relative expression levels (fold change values) for individual samples.\n(§11) Table 5 contains the median expression level values for treatment day 5 (cycle 1, day 5, hours 0, 2, and 5) at a daily dose of 600 mg or 800 mg Resminostat mesylate salt is given below."}, "[8]": {"system": "HIST2H4A; HIST2H4B", "test": "qPCR relative expression (vs cycle 1, day 1, hour 0) in patients' whole blood", "type": "in vivo, human", "protocol": "as §7, §8, §5, §6, §9, §10, §11"}, "[9]": {"system": "18S", "test": "qPCR relative expression (vs cycle 1, day 1, hour 0) in patients' whole blood", "type": "in vivo, human", "protocol": "as §7, §8, §5, §6, §9, §10, §11"}, "[10]": {"system": "DPP3", "test": "qPCR relative expression (vs cycle 1, day 1, hour 0) in patients' whole blood", "type": "in vivo, human", "protocol": "as §7, §8, §5, §6, §9, §10, §11"}, "[11]": {"system": "TBP", "test": "qPCR relative expression (vs cycle 1, day 1, hour 0) in patients' whole blood", "type": "in vivo, human", "protocol": "as §7, §8, §5, §6, §9, §10, §11"}, "[12]": {"system": "ZFP64", "test": "qPCR relative expression (vs cycle 1, day 1, hour 0) in patients' whole blood", "type": "in vivo, human", "protocol": "as §7, §8, §5, §6, §9, §10, §11"}, "[13]": {"conditions": "cycle 1, day 5, hour 0, 600 mg dose"}, "[14]": {"conditions": "cycle 1, day 5, hour 0, 800 mg dose"}, "[15]": {"conditions": "cycle 1, day 5, hour 2, 600 mg dose"}, "[16]": {"conditions": "cycle 1, day 5, hour 2, 800 mg dose"}, "[17]": {"conditions": "cycle 1, day 5, hour 5, 600 mg dose"}, "[18]": {"conditions": "cycle 1, day 5, hour 5, 800 mg dose"}}}
{"molecule": "CN(C)Cc1ccc(S(=O)(=O)n2ccc(/C=C/C(=O)NO)c2)cc1", "note": "[resminostat, (E)-3-(1-(4-((dimethylamino)methyl)phenylsulfonyl)-1H-pyrrol-3-yl)-N-hydroxyacrylamide]", "values": [{"measurement": "Expression level, CCDC43", "setting": "[1]; 2 h", "result": 0.82}, {"measurement": "Expression level, CCDC43", "setting": "[1]; 5 h", "result": 0.53}, {"measurement": "Expression level, GAPDH (housekeeping gene)", "setting": "[2]; 2 h", "result": 0.93}, {"measurement": "Expression level, GAPDH (housekeeping gene)", "setting": "[2]; 5 h", "result": 0.97}, {"measurement": "Expression level, HIST2H4A/B", "setting": "[3]; 2 h", "result": 0.96}, {"measurement": "Expression level, HIST2H4A/B", "setting": "[3]; 5 h", "result": 0.88}, {"measurement": "Expression level, KDELC2", "setting": "[4]; 2 h", "result": 0.79}, {"measurement": "Expression level, KDELC2", "setting": "[4]; 5 h", "result": 0.35}, {"measurement": "Expression level, DPP3", "setting": "[5]; 2 h", "result": 0.87}, {"measurement": "Expression level, DPP3", "setting": "[5]; 5 h", "result": 0.72}, {"measurement": "Expression level, TBP (housekeeping gene)", "setting": "[6]; 2 h", "result": 1.15}, {"measurement": "Expression level, TBP (housekeeping gene)", "setting": "[6]; 5 h", "result": 1.13}, {"measurement": "Median expression level, KDELC2", "setting": "[7]; [13]", "result": 0.909}, {"measurement": "Median expression level, KDELC2", "setting": "[7]; [14]", "result": 1.141}, {"measurement": "Median expression level, KDELC2", "setting": "[7]; [15]", "result": 0.544}, {"measurement": "Median expression level, KDELC2", "setting": "[7]; [16]", "result": 0.509}, {"measurement": "Median expression level, KDELC2", "setting": "[7]; [17]", "result": 0.215}, {"measurement": "Median expression level, KDELC2", "setting": "[7]; [18]", "result": 0.215}, {"measurement": "Median expression level, HIST2H4A; HIST2H4B", "setting": "[8]; [13]", "result": 0.875}, {"measurement": "Median expression level, HIST2H4A; HIST2H4B", "setting": "[8]; [14]", "result": 1.530}, {"measurement": "Median expression level, HIST2H4A; HIST2H4B", "setting": "[8]; [15]", "result": 2.111}, {"measurement": "Median expression level, HIST2H4A; HIST2H4B", "setting": "[8]; [16]", "result": 3.345}, {"measurement": "Median expression level, HIST2H4A; HIST2H4B", "setting": "[8]; [17]", "result": 2.042}, {"measurement": "Median expression level, HIST2H4A; HIST2H4B", "setting": "[8]; [18]", "result": 2.821}, {"measurement": "Median expression level, 18S", "setting": "[9]; [13]", "result": 0.872}, {"measurement": "Median expression level, 18S", "setting": "[9]; [14]", "result": 0.635}, {"measurement": "Median expression level, 18S", "setting": "[9]; [15]", "result": 0.871}, {"measurement": "Median expression level, 18S", "setting": "[9]; [16]", "result": 0.682}, {"measurement": "Median expression level, 18S", "setting": "[9]; [17]", "result": 0.778}, {"measurement": "Median expression level, 18S", "setting": "[9]; [18]", "result": 0.550}, {"measurement": "Median expression level, DPP3", "setting": "[10]; [13]", "result": 1.121}, {"measurement": "Median expression level, DPP3", "setting": "[10]; [14]", "result": 1.457}, {"measurement": "Median expression level, DPP3", "setting": "[10]; [15]", "result": 0.767}, {"measurement": "Median expression level, DPP3", "setting": "[10]; [16]", "result": 0.912}, {"measurement": "Median expression level, DPP3", "setting": "[10]; [17]", "result": 0.267}, {"measurement": "Median expression level, DPP3", "setting": "[10]; [18]", "result": 0.395}, {"measurement": "Median expression level, TBP", "setting": "[11]; [13]", "result": 0.991}, {"measurement": "Median expression level, TBP", "setting": "[11]; [14]", "result": 1.305}, {"measurement": "Median expression level, TBP", "setting": "[11]; [15]", "result": 0.994}, {"measurement": "Median expression level, TBP", "setting": "[11]; [16]", "result": 1.071}, {"measurement": "Median expression level, TBP", "setting": "[11]; [17]", "result": 1.052}, {"measurement": "Median expression level, TBP", "setting": "[11]; [18]", "result": 1.286}, {"measurement": "ZFP64 expression in cancer patients (FIG. 4b)", "setting": "[12]; blood cells of HCC and HL patients, 600 or 800 mg daily, Day 1 and Day 5", "result": "down-regulates"}, {"measurement": "Median expression level, ZFP64", "setting": "[12]; [13]", "result": 0.980}, {"measurement": "Median expression level, ZFP64", "setting": "[12]; [14]", "result": 1.280}, {"measurement": "Median expression level, ZFP64", "setting": "[12]; [15]", "result": 0.412}, {"measurement": "Median expression level, ZFP64", "setting": "[12]; [16]", "result": 0.356}, {"measurement": "Median expression level, ZFP64", "setting": "[12]; [17]", "result": 0.228}, {"measurement": "Median expression level, ZFP64", "setting": "[12]; [18]", "result": 0.188}]}
